Source: article PMC9321718 (Pharmaceuticals, 2022)
≈ marks a conversion by molar mass, not a printed value. Where “and” joins values, the source holds several entries; their conditions need not be identical. Equal entries are not always repeated. Where two headings read alike, the source gives them in different places.

Key:
physchem = details: 22 °C, pH 6.2, water
Description: (§3) (3) Solubility of X in water C0 = [Xaq] = A/(ε · l) was determined by UV absorbance after centrifugation of samples (10 min, 10,000× g). l = 1 cm. ε—molar absorbance coefficient (Figure 1C).

E. coli (NCIB 12210) [1] = experiment: Agar diffusion test, MIC; format: cell-based, Escherichia coli; details: for antibacterial activity of CD complex: up to 3–5 mg/mL concentration; for MIC: LB pH 7.2, 37 °C, 20 h
Description: (§1) The strains used in this study were Escherichia coli (NCIB 12210) and Bacillus subtilis (NCIB 8054) from National Resource Center All-Russian collection of industrial microorganisms SIC “Kurchatov Institute”). The culture was cultivated for 18–20 h at 37 °C to CFU ≈ 5 × 10^6 – 8 × 10^6 (determined by A600) in liquid nutrient medium Luria–Bertani (pH 7.2): E. coli—without stirring, B. subtilis—with stirring 180 rpm.
(§2) The study of the antibacterial effect of Lev and adjuvants was carried out by (a) agar diffusion test and (b) broth micro-dilution method. (a) A measured 500 µL of 100-fold culture dilution was evenly distributed over a solid nutrient medium (LB, pH 7.2) on a Petri dish. After 20 min, agar disks with a diameter of 9 mm were removed from the cups and 50 µL of the test samples were placed in the formed wells at the required concentration in a sterile PBS buffer (see Section 3.3 (2)). After 30 min, Petri dishes were placed in a 37 °C thermostat. After 24 h, the diameters of the growth inhibition zones were measured. Minimum inhibitory concentrations (MICs) are determined as the infimum of multiple concentrations of an antimicrobial that inhibits the visible growth of a microorganism after overnight incubation. (b) According to the standard broth micro-dilution method, 200 µL of the overnight culture (5 × 10^6 CFU) was placed into a 96 micro-titer plate wells. Then 50 µL of tested samples was added. The range of tested Lev concentration was 4–200 ng/mL, adjuvants concentration was in the range of 0.008–2 mg/mL. Optical density measurements at 600 nm were taken at various times (0, 3, and 18 h) to determine the number of cells. The dependence of CFU (determined by A600) on the concentration of Lev, APAB or terpenoid (briefly X) was approximated according to the Boltzmann equation (Origin software): CFU = (control CFU)/(1 + exp(([X] − MIC50)/constant value)). MIC50 and MIC90 are defined as concentrations at which the inhibition of bacterial growth by 50 and 90% is noticeable, respectively. In other words, the concentration at which the ordinate value (CFU) is equal to 50 or 10% of the control sample minus the background.

B. subtilis (NCIB 8054) [2] = experiment: Agar diffusion test, MIC; format: cell-based, Bacillus subtilis; details: B. subtilis; for antibacterial activity of CD complex: up to 3–5 mg/mL concentration; for MIC: agar diffusion test, LB pH 7.2, 37 °C, 20 h
Description: as §1, §2

[3] = Formation of inclusion complexes with MCD (UV spectroscopy, Hill linearization); format: physicochemical; details: for EE, % / LC, % / n: MCD; for EE, % / LC, %: C(MCD) = 0.01 M, pH 6.2, 22 °C; for n: Xaq + n MCDaq ⇌ X·nMCDaq, 5 mM sodium phosphate buffer pH 6.2, 22 °C
Description: To optimize the system composition, similar experiments were carried out on the formation of EG and apiol inclusion complexes with HPCD (Figure S1). […] According to these changes, the dissociation constants of the EG–HPCD and apiol–HPCD complexes (Figure S2) were calculated by Hill’s equation (Table 1). […] The physicochemical parameters of the interaction of APAB and terpenoids (X) with CD were studied by determining the concentration of substances in the aqueous fraction ([APAB] + [APAB-MCD]) according to the calibration dependence (Figure 1C) for systems with a constant amount of the essential oil component X and the concentration gradient MCD (Table 1). Theta (θ) is a fraction of the bound substance X:θ = [X-MCD]/([X-MCD] + [X]) and was calculated based on the dependence of the absorption intensity X on the MCD concentration in the system in the form of a sigmoidal Hill curve with subsequent linearization (Section 3, Section 3.3 and Section 3.4).
The molar excess of CD varied from 0.04 to 10). Further, the complexes were incubated for 1 h at 37 °C and then centrifuged ([…], 15 min, Eppendorf tubes) to separate the insoluble fractions. Complexes were studied by UV and FTIR spectroscopy.
UV spectra of solutions (point 3.3.1) were recorded on the AmerSham Biosciences UltraSpec 2100 pro device (USA) three times in the range of 200–400 nm in a quartz cell Hellma 100–QS with an optical path of 1 cm. Background spectrum (5 mM sodium phosphate buffer (pH 6.2) with 50% EtOH) was subtracted as a blank.
(1) Calculation of the dissociation constants X–MCD and X–HPCD, where X is a “guest” compound, considering the equilibrium: Xaq + n MCDaq ↔ X·nMCDaq, where Kd = [MCDaq]^n · [Xaq]/[X·nMCDaq].
First, fitting of the curves of change of the analytical signal ξ (peak intensity or peak position) versus concentration of the MCD or HPCD or was carried out using the Hill equations: (1) ξ = ξ∞ · [MCD]^n/([MCD]^n + K^n), where ξ∞—horizontal asymptote; (2) ξ = ξ0 + (ξ∞–ξ0) · [MCD]^n/([MCD]^n + K^n). Second, calculation n and Kd values by Hill’s linearization in n-binding site model: lg (θ/(1 – θ)) = n · lg [L] – lg Kd, where θ = |(ξ – ξ0)/(ξ∞ − ξ0)|is a fraction of the bound substance. N in Hill equation—number of drug molecules per CD torus.
Calculations for the following items are performed when [MCD] = 0.01 M.

[4] = HPCD, cited from earlier work
[5] = MCD, cited from earlier work; for EE, %: C(MCD) = 0.01 M
E. coli (NCIB 12210) [6] = experiment: Broth micro-dilution method, MIC50/MIC90; format: cell-based, Escherichia coli
Description: as §1
as §2, with “In other words, the concentration at which the ordinate value (CFU) is equal to 50 or 10% of the control sample minus the background.” left out

B. subtilis (NCIB 8054) [7] = experiment: Broth micro-dilution method, MIC50/MIC90; format: cell-based; details: Bacillus subtilis, NCIB8054
Description: as §1
The study of the antibacterial effect of Lev and adjuvants was carried out by (a) agar diffusion test and (b) broth micro-dilution method. (a) A measured 500 µL of 100-fold culture dilution was evenly distributed over a solid nutrient medium (LB, pH 7.2) on a Petri dish. […] After 24 h, the diameters of the growth inhibition zones were measured. Minimum inhibitory concentrations (MICs) are determined as the infimum of multiple concentrations of an antimicrobial that inhibits the visible growth of a microorganism after overnight incubation. […] The dependence of CFU (determined by A600) on the concentration of Lev, APAB or terpenoid (briefly X) was approximated according to the Boltzmann equation (Origin software): CFU = (control CFU)/(1 + exp(([X] − MIC50)/constant value)). […]

E. coli = experiment: Synergy of adjuvant-MCD with Lev-MCD, growth inhibition zones in agar; format: cell-based, Escherichia coli; details: E. coli; for D, diameter of bacterial inhibition zone surrounding Lev–MCD with APAB-MCD / ϕLev = (D/DLev)^2 / FICI: CLev 0.1 μg/mL; for D, diameter of bacterial inhibition zone surrounding Lev–MCD with APAB-MCD: Lev-MCD + X-MCD (1:2), ±0.5; for ϕLev = (D/DLev)^2: ±0.1; for FICI: ±15%
Description: We obtained complex formulations containing adjuvants-MCD and Lev-MCD. These complexes were referred to as enhanced Lev. The synergy effect was studied at a constant concentration of Lev and a variable concentration of an enhancer. […] Based on the D/DLev ratio, the effectiveness of cooperative antibacterial action (ϕ) of the adjuvant and Lev was calculated. The fractional inhibitory concentration (FIC) parameter was introduced: at a fixed Lev concentration, the FIC of adjuvant corresponds to the minimum fractional adjuvant concentration at which the antibacterial effect was still manifest (MICadjuvant in the presence of Lev). The fractional inhibitory concentration index (FICI) characterizes the ratio of the active Lev and adjuvant concentrations to the MIC values of these substances individually: FICI=[Lev]/MIC(Lev)[…][adjuvant]/MIC(adjuvant) (see Section 3).
The FICI was interpreted as: synergism (<0.35), additivity (0.35–0.75), indifference (0.75–1.4), or antagonism (>1.4). FICI is designed to determine the type of Lev interaction with adjuvants.
as §2, with “After 24 h, the diameters of the growth inhibition zones were measured.” left out, “Optical density measurements at 600 nm were taken at various times (0, 3, and 18 h) to determine the number of cells.” left out, “MIC50 and MIC90 are defined as concentrations at which the inhibition of bacterial growth by 50 and 90% is noticeable, respectively.” left out
The FICI was interpreted as: synergism (<0.35), additivity (0.35–0.75), indifference (0.76–1.4), or antagonism (>1.4). The essence of this expression is to calculate the average change in the effective concentration compared to MIC. Note that the most important parameter corresponds to a decrease in MIC of Lev. However, FICI is designed to determine the type of interaction Lev with adjuvants.

[8] = Solubility of X in water and in the presence of MCD/HPCD (UV absorbance); details: 22 °C, pH 6.2, water
Description: as §3

[9] = Escherichia coli, NCIB12210, broth micro-dilution

SMILES: C=CC(C)(O)CCC=C(C)C (centres unmarked) [Linalool]
- solubility (physchem): 300 ± 50 µM (≈ 46.3 µg/mL)
- antibacterial activity of CD complex (E. coli (NCIB 12210) [1]): inactive
- antibacterial activity of CD complex (B. subtilis (NCIB 8054) [2]): inactive
- EE, % [3]: 80 ± 7%
- LC, % [3]: 10 ± 1%
- n [3]: 1.2 ± 0.2

SMILES: C[C@H]1COc2c(N3CCN(C)CC3)c(F)cc3c(=O)c(C(=O)O)cn1c23 [Levofloxacin]
- EE, % ([4]; 0.01 M): 91 ± 15%
- LC, % [4]: 24.1 ± 0.5%
- EE, % [5]: 99 ± 12%
- EE, % ([5]; listed as Lev): more than 90%
- LC, % [5]: 28.3 ± 0.4%
- MIC (E. coli (NCIB 12210) [1]; Escherichia coli, NCIB12210, agar diffusion test, read-out: MIC): 0.1 µg/mL (≈ 0.277 µM)
- MIC (E. coli (NCIB 12210) [1]; agar diffusion test, listed as Lev): 0.10 µg/mL and 0.10 ± 0.01 µg/mL
- MIC (B. subtilis (NCIB 8054) [2]; listed as Lev): 0.45 ± 0.05 µg/mL (≈ 1.25 µM)
- MIC (B. subtilis (NCIB 8054) [2]; Bacillus subtilis, NCIB8054, read-out: MIC): 0.45 µg/mL (≈ 1.25 µM)
- MIC50 (E. coli (NCIB 12210) [6]; [9]): 0.01 ± 0.002 µg/mL (≈ 0.0277 µM)
- MIC90 (E. coli (NCIB 12210) [6]; [9]): 0.025 ± 0.004 µg/mL (≈ 0.0692 µM)
- improvement of the effect of Lev by MCD (E. coli (NCIB 12210) [6]; broth micro-dilution test): 30%
- MIC50 (B. subtilis (NCIB 8054) [7]): 0.03 ± 0.01 µg/mL (≈ 0.083 µM)
- MIC90 (B. subtilis (NCIB 8054) [7]): 0.08 ± 0.02 µg/mL (≈ 0.221 µM)

SMILES: C=CCc1cc(OC)c(OC)c(OC)c1OC [Allyltetramethoxybenzene]
- decrease of MICLev in the presence of adjuvant (E. coli): 1.25–1.5 times
- D, diameter of bacterial inhibition zone surrounding Lev–MCD with APAB-MCD (E. coli): 12 mm
- ϕLev = (D/DLev)^2 (E. coli): 1.1
- FICI (E. coli): 0.50
- antibacterial activity of CD complex (E. coli (NCIB 12210) [1]): inactive
- solubility [8]: 160 ± 20 µM
- antibacterial activity of CD complex (B. subtilis (NCIB 8054) [2]): inactive
- EE, % [3]: 45 ± 4%
- LC, % [3]: 11 ± 1%
- n [3]: 1.74 ± 0.11

SMILES: C=CCc1cc(OC)c2c(c1)OCO2 [Myristicin]
- decrease of MICLev in the presence of adjuvant (E. coli): 1.25–1.5 times
- D, diameter of bacterial inhibition zone surrounding Lev–MCD with APAB-MCD (E. coli): 13.25 mm
- ϕLev = (D/DLev)^2 (E. coli): 1.2
- FICI (E. coli): 0.04
- solubility (physchem): 30 ± 7 µM (≈ 5.77 µg/mL)
- antibacterial activity of CD complex (E. coli (NCIB 12210) [1]): inactive
- antibacterial activity of CD complex (B. subtilis (NCIB 8054) [2]): inactive
- molar ratio APAB:CD of inclusion complexes [3]: 2 to 1
- EE, % [3]: 99 ± 5%
- LC, % [3]: 22 ± 2%
- EE, % ([3]; listed as myristicin): more than 90%
- n [3]: 0.67 ± 0.06

SMILES: C=CCc1cc2c(c(OC)c1OC)OCO2 [Dillapiol]
- decrease of MICLev in the presence of adjuvant (E. coli): 1.25–1.5 times
- D, diameter of bacterial inhibition zone surrounding Lev–MCD with APAB-MCD (E. coli): 13.75 mm
- ϕLev = (D/DLev)^2 (E. coli): 1.3
- FICI (E. coli): 0.04
- solubility (physchem): 240 ± 50 µM (≈ 53.3 µg/mL)
- EE, % [3]: 56 ± 10%
- LC, % [3]: 13 ± 1%
- n [3]: 1.3 ± 0.2
